According to patent US12257237B2 (priority 2017, dated 2025):
Where “and” joins values, the source holds several entries; their conditions need not be identical. Equal entries are not always repeated.

Test system: DD013 dedifferentiated liposarcoma
Assay: Antitumour activity in DD013 dedifferentiated liposarcoma xenograft model
Assay type: in vivo, Athymic nude mice
Procedure: Experiments were performed with female Athymic nude mice, 9-10 weeks old obtained from Harlan Laboratories (Udine, Italy). They were maintained under Specific Pathogen Free conditions with constant temperature and humidity, according to the institutional guidelines.
Tumour growth mice was monitored two/three times a week (depending on tumour growth rate, to avoid unnecessary stress to the animals) by Vernier caliper. Mice were sacrificed when tumour reached a mean weight of 2±0.5 gr. The antitumour activity will be expressed as T/C %, where T and C were the mean tumour weight of treated and control groups, respectively. Mice were monitored daily and weighted at least two times a week. Tolerability was evaluated on the basis of body weight loss (BWL) and clinical observation.
Statistical analysis was performed with GraphPad Prism version 6.01 software (GraphPad software, Inc., La Jolla, CA, USA). ANOVA test was performed to evaluate if there were statistically significant differences between treated and control groups.
Briefly, xenografts were obtained by transplanting 3-4 mm tumour fragments s.c. in the flanks of mice. The growing tumour masses were measured with the aid of a Vernier caliper, and the tumour weights (TW, 1 mm^3=1 mg) were calculated by the formula: length×(width) 2/2. When tumour load achieved about 200-400 mg, mice were randomized into the experimental groups.

Cn1c(CCCCCCC(=O)NO)nc2cc(N(CCCl)CCCl)ccc21 [EDO-S101, 7-(5-(bis(2-chloroethyl)amino)-1-methyl-1H-benzo[d]imidazol-2-yl)-N-hydroxyheptanamide]
DD0113 tumour weight, Mean (EDO60: EDO-S101 60 mg/kg q7dx3, day 87 from inoculum): 393.6 mg | DD0113 tumour weight, Mean (EDO60: EDO-S101 60 mg/kg q7dx3, day 90 from inoculum): 436.6 mg | DD0113 tumour weight, individual mouse (EDO60: EDO-S101 60 mg/kg q7dx3, day 90 from inoculum, 60 mg/kg): 118.4 mg and 56.3 mg and 626.5 mg and 82.7 mg and 234.7 mg and 492.6 mg and 49.6 mg | DD0113 tumour weight, Mean (EDO60: EDO-S101 60 mg/kg q7dx3, day 94 from inoculum): 476.6 mg | DD0113 tumour weight, individual mouse (EDO60: EDO-S101 60 mg/kg q7dx3, day 94 from inoculum, 60 mg/kg): 135.6 mg and 73.5 mg and 693.0 mg and 95.1 mg and 279.8 mg and 598.8 mg and 43.4 mg | DD0113 tumour weight, Mean (EDO60: EDO-S101 60 mg/kg q7dx3, day 98 from inoculum): 451.5 mg | DD0113 tumour weight, individual mouse (EDO60: EDO-S101 60 mg/kg q7dx3, day 98 from inoculum, 60 mg/kg): 113.6 mg and 57.9 mg and 655.0 mg and 70.1 mg and 225.1 mg and 584.9 mg and 30.7 mg | DD0113 tumour weight, Mean (EDO60: EDO-S101 60 mg/kg q7dx3, day 100 from inoculum): 518.4 mg | DD0113 tumour weight, individual mouse (EDO60: EDO-S101 60 mg/kg q7dx3, day 100 from inoculum, 60 mg/kg): 122.1 mg and 86.5 mg and 751.1 mg and 87.0 mg and 297.7 mg and 718.0 mg and 40.7 mg | DD0113 tumour weight, Mean (EDO60: EDO-S101 60 mg/kg q7dx3, day 103 from inoculum): 503.0 mg | DD0113 tumour weight, individual mouse (EDO60: EDO-S101 60 mg/kg q7dx3, day 103 from inoculum, 60 mg/kg): 70.5 mg and 747.9 mg and 89.6 mg and 231.0 mg and 670.9 mg and 37.5 mg | DD0113 tumour weight, Mean (EDO60: EDO-S101 60 mg/kg q7dx3, day 111 from inoculum): 502.0 mg | DD0113 tumour weight, individual mouse (EDO60: EDO-S101 60 mg/kg q7dx3, day 111 from inoculum, 60 mg/kg): 90.0 mg and 45.6 mg and 813.1 mg and 62.2 mg and 245.9 mg and 686.9 mg and 33.9 mg | DD0113 tumour weight, Mean (EDO60: EDO-S101 60 mg/kg q7dx3, day 114 from inoculum): 624.6 mg | DD0113 tumour weight, individual mouse (EDO60: EDO-S101 60 mg/kg q7dx3, day 114 from inoculum, 60 mg/kg): 131.7 mg and 81.4 mg and 999.4 mg and 119.1 mg and 284.3 mg and 935.9 mg and 61.0 mg | DD0113 tumour weight, Mean (EDO60: EDO-S101 60 mg/kg q7dx3, day 118 from inoculum): 747.2 mg | DD0113 tumour weight, individual mouse (EDO60: EDO-S101 60 mg/kg q7dx3, day 118 from inoculum, 60 mg/kg): 157.8 mg and 79.8 mg and 1342.5 mg and 134.3 mg and 364.6 mg and 1024.5 mg and 64.1 mg | DD0113 tumour weight, Mean (EDO80: EDO-S101 80 mg/kg single dose, day 23 from inoculum): 198.0 mg | DD0113 tumour weight, individual mouse (EDO80: EDO-S101 80 mg/kg single dose, day 23 from inoculum, 80 mg/kg): 361.8 mg and 272.9 mg and 241.0 mg and 225.2 mg and 191.6 mg | DD0113 tumour weight, Mean (EDO80: EDO-S101 80 mg/kg single dose, day 26 from inoculum): 253.1 mg | DD0113 tumour weight, individual mouse (EDO80: EDO-S101 80 mg/kg single dose, day 26 from inoculum, 80 mg/kg): 410.2 mg and 433.7 mg and 275.2 mg and 338.5 mg and 196.8 mg | DD0113 tumour weight, Mean (EDO80: EDO-S101 80 mg/kg single dose, day 29 from inoculum): 251.2 mg | DD0113 tumour weight, individual mouse (EDO80: EDO-S101 80 mg/kg single dose, day 29 from inoculum, 80 mg/kg): 399.5 mg and 447.9 mg and 310.3 mg and 335.3 mg and 179.1 mg | DD0113 tumour weight, Mean (EDO80: EDO-S101 80 mg/kg single dose, day 33 from inoculum): 251.0 mg | DD0113 tumour weight, individual mouse (EDO80: EDO-S101 80 mg/kg single dose, day 33 from inoculum, 80 mg/kg): 456.2 mg and 408.9 mg and 293.6 mg and 271.4 mg and 220.9 mg | DD0113 tumour weight, Mean (EDO80: EDO-S101 80 mg/kg single dose, day 36 from inoculum): 256.4 mg | DD0113 tumour weight, individual mouse (EDO80: EDO-S101 80 mg/kg single dose, day 36 from inoculum, 80 mg/kg): 466.8 mg and 431.6 mg and 284.2 mg and 280.3 mg and 194.9 mg | DD0113 tumour weight, Mean (EDO80: EDO-S101 80 mg/kg single dose, day 40 from inoculum): 283.7 mg | DD0113 tumour weight, individual mouse (EDO80: EDO-S101 80 mg/kg single dose, day 40 from inoculum, 80 mg/kg): 569.1 mg and 476.7 mg and 364.0 mg and 279.7 mg and 216.2 mg | DD0113 tumour weight, Mean (EDO80: EDO-S101 80 mg/kg single dose, day 43 from inoculum): 284.8 mg | DD0113 tumour weight, individual mouse (EDO80: EDO-S101 80 mg/kg single dose, day 43 from inoculum, 80 mg/kg): 500.6 mg and 547.3 mg and 355.5 mg and 255.8 mg and 227.9 mg | DD0113 tumour weight, Mean (EDO80: EDO-S101 80 mg/kg single dose, day 47 from inoculum): 326.3 mg | DD0113 tumour weight, individual mouse (EDO80: EDO-S101 80 mg/kg single dose, day 47 from inoculum, 80 mg/kg): 626.2 mg and 643.5 mg and 338.2 mg and 321.9 mg and 275.0 mg | DD0113 tumour weight, Mean (EDO80: EDO-S101 80 mg/kg single dose, day 50 from inoculum): 384.4 mg | DD0113 tumour weight, individual mouse (EDO80: EDO-S101 80 mg/kg single dose, day 50 from inoculum, 80 mg/kg): 686.0 mg and 716.7 mg and 447.7 mg and 447.8 mg and 297.1 mg | DD0113 tumour weight, Mean (EDO80: EDO-S101 80 mg/kg single dose, day 54 from inoculum): 418.9 mg | DD0113 tumour weight, Mean (EDO80: EDO-S101 80 mg/kg single dose, day 58 from inoculum): 511.4 mg | DD0113 tumour weight, Mean (EDO80: EDO-S101 80 mg/kg single dose, day 62 from inoculum): 549.2 mg | DD0113 tumour weight, Mean (EDO80: EDO-S101 80 mg/kg single dose, day 65 from inoculum): 540.3 mg | DD0113 tumour weight, Mean (EDO80: EDO-S101 80 mg/kg single dose, day 69 from inoculum): 531.6 mg | DD0113 tumour weight, Mean (EDO80: EDO-S101 80 mg/kg single dose, day 72 from inoculum): 581.5 mg | DD0113 tumour weight, Mean (EDO80: EDO-S101 80 mg/kg single dose, day 75 from inoculum): 560.9 mg | DD0113 tumour weight, Mean (EDO80: EDO-S101 80 mg/kg single dose, day 79 from inoculum): 564.1 mg | DD0113 tumour weight, Mean (EDO80: EDO-S101 80 mg/kg single dose, day 83 from inoculum): 475.0 mg | DD0113 tumour weight, Mean (EDO80: EDO-S101 80 mg/kg single dose, day 87 from inoculum): 594.1 mg | DD0113 tumour weight, Mean (EDO80: EDO-S101 80 mg/kg single dose, day 90 from inoculum): 638.8 mg | DD0113 tumour weight, Mean (EDO80: EDO-S101 80 mg/kg single dose, day 94 from inoculum): 826.0 mg | DD0113 tumour weight, Mean (EDO80: EDO-S101 80 mg/kg single dose, day 98 from inoculum): 927.2 mg | DD0113 tumour weight, Mean (EDO80: EDO-S101 80 mg/kg single dose, day 100 from inoculum): 1209.8 mg | DD0113 tumour weight, Mean (EDO80: EDO-S101 80 mg/kg single dose, day 103 from inoculum): 1301.2 mg
